Results published in US10377770B2 (Novartis AG, priority 2015, dated 2019).
pIC50: −log10 of the molar value.

The compounds below were run against C-Raf FL (full length CRAF with Y340E and Y341E activating mutations, co-expressed with h14-3-3 zeta) (Homo sapiens (Human), UniProt P04049, Y340E/Y341E) (assay: In vitro Raf activity determination, AlphaScreen p-MEK readout, c-Raf (C-Raf FL)). Details: c-Raf approximately 4 nM, ATP 1 μM, pre-incubation 60 minutes, reaction 1 hour.
Chain of C-Raf FL (full length CRAF with Y340E and Y341E activating mutations, co-expressed with h14-3-3 zeta) (P04049 whole entry Y340E/Y341E): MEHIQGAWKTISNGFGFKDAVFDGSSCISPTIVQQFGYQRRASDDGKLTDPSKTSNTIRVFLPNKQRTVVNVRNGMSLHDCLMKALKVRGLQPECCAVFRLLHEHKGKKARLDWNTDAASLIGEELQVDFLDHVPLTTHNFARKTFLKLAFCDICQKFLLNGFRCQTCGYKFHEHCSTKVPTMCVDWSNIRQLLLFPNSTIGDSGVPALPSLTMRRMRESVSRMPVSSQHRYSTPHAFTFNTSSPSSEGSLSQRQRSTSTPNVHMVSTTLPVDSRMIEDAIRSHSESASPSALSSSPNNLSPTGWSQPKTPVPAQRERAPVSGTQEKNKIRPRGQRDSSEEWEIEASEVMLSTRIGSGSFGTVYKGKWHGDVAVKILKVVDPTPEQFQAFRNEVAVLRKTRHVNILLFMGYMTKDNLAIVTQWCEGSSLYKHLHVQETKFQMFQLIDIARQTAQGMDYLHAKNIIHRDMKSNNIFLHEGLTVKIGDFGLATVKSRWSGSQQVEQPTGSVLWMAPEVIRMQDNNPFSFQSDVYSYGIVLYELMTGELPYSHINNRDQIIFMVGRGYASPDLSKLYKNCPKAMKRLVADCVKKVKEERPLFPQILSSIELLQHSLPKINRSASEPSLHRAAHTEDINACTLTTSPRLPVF
Chain of C-Raf FL (full length CRAF with Y340E and Y341E activating mutations, co-expressed with h14-3-3 zeta) (P63104 whole entry partner): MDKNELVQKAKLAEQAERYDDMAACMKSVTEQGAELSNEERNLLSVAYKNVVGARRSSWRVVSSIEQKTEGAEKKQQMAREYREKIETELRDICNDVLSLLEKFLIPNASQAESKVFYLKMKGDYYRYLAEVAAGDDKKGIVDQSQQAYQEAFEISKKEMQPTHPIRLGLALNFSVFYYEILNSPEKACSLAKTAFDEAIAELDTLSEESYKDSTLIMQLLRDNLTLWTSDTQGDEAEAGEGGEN
Type: biochemical
Text: Sf9 cells co-expressing both proteins were lysed and subjected to immobilized nickel chromatography and eluted with Imidazole. A second column (StrepII binding column) was used and eluted with desthiobiotin. Protein Tags were removed using Prescission enzyme and the protein was further purified using a flowthrough step to remove tags.
C-Raf TR refers to a truncated C-Raf protein, a Δ1-324 deletion mutant. C-Raf FL refers to the full-length C-Raf protein.
Full length MEK1 with an inactivating K97R ATP binding site mutation is utilized as a RAF substrate. The MEK1 cDNA was subcloned with an N-terminal (his)6 tag into a vector for E. Coli expression. The MEK1 substrate was purified from E. Coli lysate by nickel affinity chromatography followed by anion exchange. The final MEK1 preparation was biotinylated (Pierce EZ-Link Sulfo-NHS-LC-Biotin) and concentrated.
Assay Materials: Assay buffer is 50 mM Tris, pH 7.5, 15 mM MgCl2, 0.01% Bovine Serum Albumin (BSA) and 1 mM dithiothreitol (DTT); Stop buffer is 60 mM ethylenediaminetetraacetic acid (EDTA) and 0.01% Tween® 20; b-Raf (V600E), active; biotinylated Mek, kinase dead; Alpha Screen detection kit (available from PerkinElmer™, #6760617R); Anti phospho-MEK1/2 (available from Cell Signaling Technology, Inc. #9121); 384 well low volume assay plates (White Greiner® plates).
Assay conditions: b-Raf (V600E) approximately 4 pM; c-Raf approximately 4 nM; biotinylated Mek, kinase dead approximately 10 nM; ATP 10 μM for BRAF (V600E) and 1 μM for CRAF; Pre-incubation time with compounds 60 minutes at room temperature; Reaction time 1 or 3 hours at room temperature.
Assay protocol: Raf and biotinylated Mek (kinase dead) were combined at 2× final concentrations in assay buffer (50 mM Tris, pH 7.5, 15 mM MgCl2, 0.01% BSA and 1 mM DTT) and dispensed […] per well in assay plates (Greiner white 384 well assay plates #781207) containing […] of 40× of a Raf kinase inhibitor test compound diluted in 100% DMSO. The plate was incubated for 60 minutes at room temperature. The Raf kinase activity reaction was started by the addition of […] per well of 2×ATP diluted in assay buffer. After 3 hours (b-Raf(V600E)) or 1 hour (c-Raf). The reactions were stopped and the phosphorylated product was measured using a rabbit anti-p-MEK (Cell Signaling, #9121) antibody and the Alpha Screen IgG (ProteinA) detection Kit (PerkinElmer #6760617R), by the addition of […] to the well of a mixture of the antibody (1:2000 dilution) and detection beads (1:2000 dilution of both beads) in Stop/bead buffer (25 mM EDTA, 50 mM Tris, pH 7.5, 0.01% Tween20). The additions were carried out under dark conditions to protect the detection beads from light. A lid was placed on top of the plate and incubated for 1 hour at room temperature, after which the luminescence was read on a PerkinElmer Envision instrument.
Cc1ccc(NC(=O)c2ccnc(C(C)(F)F)c2)cc1-c1cnc2c(c1)N1CCOC[C@H]1C[C@@]2(C)O (racemic) [Example 41, (rac)-(trans)-2-(1,1-difluoroethyl)-N-(3-(6-hydroxy-6-methyl-1,2,4,4a,5,6-hexahydro-[1,4]oxazino[4,3-a][1,5]naphthyridin-9-yl)-4-methylphenyl)isonicotinamide] showed a pIC50 of 11.00. For Cc1ccc(NC(=O)c2ccnc(C(C)(F)F)c2)cc1-c1cnc2c(c1)N1CCOC[C@H]1C[C@]2(C)O (racemic) [Example 42, (rac)-(cis)-2-(1,1-difluoroethyl)-N-(3-(6-hydroxy-6-methyl-1,2,4,4a,5,6-hexahydro-[1,4]oxazino[4,3-a][1,5]naphthyridin-9-yl)-4-methylphenyl)isonicotinamide], the pIC50 was 10.82. For Cc1ncc(NC(=O)c2cccc(C(F)(F)F)c2)cc1-c1cnc2c(c1)N1CCOC[C@H]1C[C@@]2(C)O (racemic) [Example 43, (rac)-(trans)-N-(5-(6-hydroxy-6-methyl-1,2,4,4a,5,6-hexahydro-[1,4]oxazino[4,3-a][1,5]naphthyridin-9-yl)-6-methylpyridin-3-yl)-3-(trifluoromethyl)benzamide], the pIC50 was 11.09. Compound Cc1ncc(NC(=O)c2cccc(C(F)(F)F)c2)cc1-c1cnc2c(c1)N1CCOC[C@H]1C[C@]2(C)O (racemic) [Example 44, (rac)-(cis)-N-(5-(6-hydroxy-6-methyl-1,2,4,4a,5,6-hexahydro-[1,4]oxazino[4,3-a][1,5]naphthyridin-9-yl)-6-methylpyridin-3-yl)-3-(trifluoromethyl)benzamide] has a pIC50 of 10.43. Compound Cc1ccc(NC(=O)c2ccnc(C(F)(F)F)c2)cc1-c1ccc2c(c1)N1CCOCC1c1cn(C)nc1-2 (racemic) [Example 45, (rac)-N-(4-methyl-3-(2-methyl-3b,4,6,7-tetrahydro-2H-[1,4]oxazino[4,3-a]pyrazolo[4,3-c]quinolin-10-yl)phenyl)-2-(trifluoromethyl)isonicotinamide] has a pIC50 of 9.77. Compound Cc1ccc(NC(=O)c2ccnc(C(C)(F)F)c2)cc1-c1cc2c(nn1)[C@H](O)C[C@@H]1COCCN21 (racemic) [Example 46, (rac)(trans)-2-(1,1-difluoroethyl)-N-(3-(5-hydroxy-5,6,6a,7,9,10-hexahydropyridazino[3′,4′:5,6]pyrido[2,1-c][1,4]oxazin-2-yl)-4-methylphenyl)isonicotinamide] has a pIC50 of 10.85. In the case of Cc1ncc(NC(=O)c2cccc(C(F)(F)F)c2)cc1-c1cc2c(nn1)[C@H](O)C[C@@H]1COCCN21 (racemic) [Example 47, (rac)-(trans)-N-(5-(5-hydroxy-5,6,6a,7,9,10-hexahydropyridazino[3′,4′:5,6]pyrido[2,1-c][1,4]oxazin-2-yl)-6-methylpyridin-3-yl)-3-(trifluoromethyl)benzamide], the pIC50 was 10.14. Cc1ccc(NC(=O)c2ccnc(C(F)(F)F)c2)cc1-c1cc2c(nn1)[C@H](O)C[C@@H]1COCCN21 (racemic) [Example 48, (rac)-(trans)-N-(3-(5-hydroxy-5,6,6a,7,9,10-hexahydropyridazino[3′,4′:5,6]pyrido[2,1-c][1,4]oxazin-2-yl)-4-methylphenyl)-2-(trifluoromethyl)isonicotinamide] showed a pIC50 of 10.31. With Cc1ccc(NC(=O)c2ccnc(C(F)(F)F)c2)cc1-c1ccc2c(c1)N1CCOCC1C(CO)(CO)C2 (racemic) [Example 49, (rac)-N-(3-(5,5-bis(hydroxymethyl)-1,2,4,4a,5,6-hexahydro-[1,4]oxazino[4,3-a]quinolin-9-yl)-4-methylphenyl)-2-(trifluoromethyl)isonicotinamide] the pIC50 was 10.68. For Cc1ccc(NC(=O)c2ccnc(C(C)(F)F)c2)cc1-c1ccc2c(c1)N1CCOCC1C(CO)(CO)C2 (racemic) [Example 50, (rac)-N-(3-(5,5-bis(hydroxymethyl)-1,2,4,4a,5,6-hexahydro-[1,4]oxazino[4,3-a]quinolin-9-yl)-4-methylphenyl)-2-(1,1-difluoroethyl)isonicotinamide], the pIC50 was 10.89. With Cc1ncc(NC(=O)c2cccc(C(F)(F)F)c2)cc1-c1ccc2c(c1)N1CCOCC1C(CO)(CO)C2 (racemic) [Example 51, (rac)-N-(5-(5,5-bis(hydroxymethyl)-1,2,4,4a,5,6-hexahydro-[1,4]oxazino[4,3-a]quinolin-9-yl)-6-methylpyridin-3-yl)-3-(trifluoromethyl)benzamide] the pIC50 was 10.44. In the case of Cc1ccc(NC(=O)c2ccnc(C(F)(F)F)c2)cc1-c1ccc2c(c1)N1CCOCC1C1(COC1)C2 (racemic) [Example 54, (rac)-N-(4-methyl-3-(2,4,4a,6-tetrahydro-1H-spiro[[1,4]oxazino[4,3-a]quinoline-5,3′-oxetan]-9-yl)phenyl)-2-(trifluoromethyl)isonicotinamide], the pIC50 was 10.89. Work on Cc1ccc(NC(=O)c2ccnc(C(C)(F)F)c2)cc1-c1ccc2c(c1)N1CCOCC1C1(COC1)C2 (racemic) [Example 55, (rac)-2-(1,1-difluoroethyl)-N-(4-methyl-3-(2,4,4a,6-tetrahydro-1H-spiro[[1,4]oxazino[4,3-a]quinoline-5,3′-oxetan]-9-yl)phenyl)isonicotinamide] yielded a pIC50 of 10.66. Cc1ncc(NC(=O)c2cccc(C(F)(F)F)c2)cc1-c1ccc2c(c1)N1CCOCC1C1(COC1)C2 (racemic) [Example 56, (rac)-N-(6-methyl-5-(2,4,4a,6-tetrahydro-1H-spiro[[1,4]oxazino[4,3-a]quinoline-5,3′-oxetan]-9-yl)pyridin-3-yl)-3-(trifluoromethyl)benzamide] showed a pIC50 of 10.15. Cc1ccc(NC(=O)c2ccnc(C(F)(F)F)c2)cc1-c1ccc2c(c1)N1CCOCC1C(CO)C2 (racemic) [Example 59, (rac)-N-(3-(5-(hydroxymethyl)-1,2,4,4a,5,6-hexahydro-[1,4]oxazino[4,3-a]quinolin-9-yl)-4-methylphenyl)-2-(trifluoromethyl)isonicotinamide] gave a pIC50 of 11.05. Compound Cc1ccc(NC(=O)c2ccnc(C(C)(F)F)c2)cc1-c1ccc2c(c1)N1CCOCC1C(CO)C2 (racemic) [Example 60, (rac)-2-(1,1-difluoroethyl)-N-(3-(5-(hydroxymethyl)-1,2,4,4a,5,6-hexahydro-[1,4]oxazino[4,3-a]quinolin-9-yl)-4-methylphenyl)isonicotinamide] has a pIC50 of 10.72. Cc1ncc(NC(=O)c2cccc(C(F)(F)F)c2)cc1-c1ccc2c(c1)N1CCOCC1C(CO)C2 (racemic) [Example 61, (rac)-N-(5-(5-(hydroxymethyl)-1,2,4,4a,5,6-hexahydro-[1,4]oxazino[4,3-a]quinolin-9-yl)-6-methylpyridin-3-yl)-3-(trifluoromethyl)benzamide] gave a pIC50 of 10.48. CNC(=O)C1Cc2ccc(-c3cc(NC(=O)c4ccnc(C(F)(F)F)c4)ccc3C)cc2N2CCOCC12 (racemic) [Example 66, (rac)-N-methyl-9-(2-methyl-5-(2-(trifluoromethyl)isonicotinamido)phenyl)-1,2,4,4a,5,6-hexahydro-[1,4]oxazino[4,3-a]quinoline-5-carboxamide] showed a pIC50 of 9.96. For CNC(=O)C1Cc2ccc(-c3cc(NC(=O)c4ccnc(C(C)(F)F)c4)ccc3C)cc2N2CCOCC12 (racemic) [Example 67, (rac)-9-(5-(2-(1,1-difluoroethyl)isonicotinamido)-2-methylphenyl)-N-methyl-1,2,4,4a,5,6-hexahydro-[1,4]oxazino[4,3-a]quinoline-5-carboxamide], the pIC50 was 9.89. CNC(=O)C1Cc2ccc(-c3cc(NC(=O)c4cccc(C(F)(F)F)c4)cnc3C)cc2N2CCOCC12 (racemic) [Example 68, (rac)-N-methyl-9-(2-methyl-5-(3-(trifluoromethyl)benzamido)pyridin-3-yl)-1,2,4,4a,5,6-hexahydro-[1,4]oxazino[4,3-a]quinoline-5-carboxamide] gave a pIC50 of 9.47. Compound CCNC(=O)C1Cc2ccc(-c3cc(NC(=O)c4ccnc(C(F)(F)F)c4)ccc3C)cc2N2CCOCC12 (racemic) [Example 73, (rac)-N-ethyl-9-(2-methyl-5-(2-(trifluoromethyl)isonicotinamido)phenyl)-1,2,4,4a,5,6-hexahydro-[1,4]oxazino[4,3-a]quinoline-5-carboxamide] has a pIC50 of 9.70.
